According to patent US20230228760A1, “INTRACELLULAR KINASE ASSOCIATED WITH RESISTANCE AGAINST T-CELL MEDIATED CYTOTOXICITY, AND USES THEREOF” (iOmx Therapeutics AG, priority 2020, published 2023):

Legend:
CAMK1D = CAMK1D protein knockdown by western blot; assay type: cell-based, human; conditions: KMM-1 cells, 48h after transfection
Experimental: (§1) Gene knockdown in tumor cells was induced using reverse siRNA transfection with Lipofectamine RNAiMAX (Thermo Scientific). Briefly, 200 μL of 250 nM siRNA solution was added to each well of a 6-well plate. 4 μl of RNAiMAX transfection reagent was diluted in 196 μL of RPMI (Sigma-Aldrich) and incubated for 10 min at room temperature (RT). 400 μL of additional RPMI was added and 600 μL of RNAiMAX mix was given to the siRNA coated wells and incubated for 30 min at RT. 3.5×10^5 KMM-1 (WT or luc) cells were resuspended in 1.2 mL of antibiotic-free RPMI culture medium supplemented with 10% FCS, seeded in the siRNA-RNAiMAX containing wells and incubated for 48 h at 37° C., 5% CO2. Final siRNA concentration was 25 nM in all cases.
30 μg of protein lysates were denaturated in 4×NuPAGE LDS Sample Buffer (Thermo Scientific) containing 100% ß-mercaptoethanol (PAN) at 70° C. for 10 min. Samples were spun down and separated on NuPAGE 4-12% Bis-Tris Gels (Thermo Scientific) along with PageRuler Prestained Protein Ladder (Thermo Scientific) and run at 115-150 V for 90 min.
Proteins were transferred from the gel to a PVDF membrane (Millipore) using a semi-dry western blot method. The PVDF blotting membrane (Merck Millipore) was activated in 100% methanol (Merck Millipore) for 1 min and afterwards placed in Transfer Buffer (Thermo Science) until use. Blots were assembled from anode to cathode into the Pierce Power Blot cassette (Thermo Scientific) and run at 24 V for 10 min. Membranes were washed in ix TBS and then placed in blocking solution (5% BSA/0.05% TBST) for 2 h. […] The blots were incubated with the ECL Detection Reagent (Reagent A and Reagent B, 1:1, GE Healthcare) for 4 min and the chemiluminescence was detected with myECL Imager (Thermo Scientific).

KMM-1-luc cells [1] = assay: luciferase-based cytotoxicity assay of siRNA-transfected tumour cells co-cultured with MILs; assay type: cell-based, human; conditions: for T cell mediated cytotoxicity: co-culture with MILs, 10:1 E:T ratio; for viability impact of siRNA per se: viability setting, culture medium instead of T cells
Experimental: as §1
(§2) KMM-1-luc cells were reverse transfected with the desired siRNA sequences in white 96-well-plate (Perkin Elmer) and incubated for 48 h at 37° C., 5% CO2. At the same day of transfection MILs were thawn and treated with benzonase (too IU/mL) (Merck). Cell density was adjusted to 0.6×10^6 cells/mL in CLM supplemented with 3000 IU/mL rhuIL-2 (Novartis) for 48 h. IL-2 was depleted 24 h before the co-culture. Flu TC were thawn 6 h before co-culture. For the cytotoxicity setting, MILs, flu TC, the supernatant of activated MILs or rHuFasL were added to transfected tumor cells at desired E:T ratio/concentration, and incubated for 20 h at 37° C., 5% CO2. For the viability setting, only CLM was added to the tumor cells. After co-culture, supernatant was removed, remaining tumor cells were lysed using 40 μL/well of cell lysis buffer for 10 min. After tumor cell lysis, 60 μL/well of luciferase assay buffer was added and luciferase intensity was measured by using the Spark 20M plate reader (Tecan) with a counting time of 100 msec. Luciferase activities (relative luminescence units=RLUs) were either represented as raw luciferase values or as normalized data to scramble or unstimulated controls.

CAMK1D mRNA = CAMK1D mRNA knockdown by qPCR; assay type: cell-based, human; conditions: KMM-1 cells, 48h after transfection, normalized to β-actin
Experimental: Gene expression was measured using end-point PCR. Briefly, total RNA was isolated from cell pellets using the RNeasy Mini kit (Qiagen) according to the manufacturer's guidelines. 1 μg of RNA was reverse transcribed to complementary DNA (cDNA) using the QuantiTect reverse transcription kit (Qiagen) according to the manufacturer's protocol. Synthesized cDNA was amplified using conventional PCR. PCR samples were set up in a 25 μL volume using 2×MyTaq HS Red Mix (Bioline), 500 nM of gene-specific primer mix and 100 ng of template cDNA. The PCR program was set as the following: 95° C. for 3 min, 35 cycles of 3 repetitive steps of denaturation (95° C. for 30 s), annealing (60° C. for 30 s) and extension (72° C. for 30 s), and a final step at 72° C. for 5 min. PCR products were run on a 2% agarose gel in TAE buffer using a gel electrophoresis system (Thermo Scientific) and DNA bands were visualized using UV light of myECL Imager (Thermo Scientific). Knockdown efficiency of siRNA sequences was measured by quantitative PCR (qPCR). For qPCR, 10 ng of template cDNA, 2× QuantiFast SYBR Green PCR mix (Qiagen) and 300 nM of gene-specific primer mix was used per 20 μL reaction and each sample was prepared in triplicates. Reactions were run using the QuantStudio 3 (Applied Biosystems). Expression of several genes was normalized to the expression of β-actin gene and the analysis was performed using comparative Ct method.
as §1, with “Final siRNA concentration was 25 nM in all cases.” left out

Mel270 cells = assay: blocking assay: CAMK1D inhibitor plus rHuFasL, luciferase-based cytotoxicity assay; assay type: cell-based, human; conditions: Mel270 uveal melanoma cells; rHuFasL 100 ng/mL, 20 h
Experimental: as §2, with “controls. For the experiments using the anti-Calmodulin (W7) (Tocris) inhibitor, 1×10^4 KMM-1-luc (scr or CAMK1D-transfected) cells/well were seeded in white 96 well plates (Perkin Elmer) in 100 μL of RPMI 10% FCS. […]” for “controls.”

KMM-1-luc cells [2] = assay: as above; assay type: cell-based, human; conditions: KMM-1 multiple myeloma cells; rHuFasL 100 ng/mL, 20 h
Experimental: as §2, with “controls. For the experiments using the anti-Calmodulin (W7) (Tocris) inhibitor, 1×10^4 KMM-1-luc (scr or CAMK1D-transfected) cells/well were seeded in white 96 well plates (Perkin Elmer) in 100 μL of RPMI 10% FCS. […]” for “controls.”

[3] = molecular target: T1, recombinantly expressed CAMK1D protein kinase (Homo sapiens, UniProt Q8IU85); assay: radiometric protein kinase assay (33PanQinase Activity Assay) of CAMK1D kinase activity; assay type: biochemical; conditions: 10 concentrations (1x10-05 M to 3x10-10 M), singlicate; read-out: IC50 of CAMK1D kinase inhibition
T1 construct: purchased ProQinase (Freiburg, Germany)
Experimental: QPP was identified as CAMK1D inhibitor in a radiometric protein kinase assay (PanQinase® Activity Assay) used for measuring the kinase activity of a recombinantly expressed CAMK1D protein kinase. All assays were performed with a BeckmanCoulter/SAGIAN™ Core System.

KMM-1-luc cells [4] = assay: blocking assay: CaM inhibitor (W7) with or without rHuFasL, luciferase-based cytotoxicity assay; assay type: cell-based, human
Experimental: as §2
For the experiments using the anti-Calmodulin (W7) (Tocris) inhibitor, 1×10^4 KMM-1-luc (scr or CAMK1D-transfected) cells/well were seeded in white 96 well plates (Perkin Elmer) in 100 μL of RPMI 10% FCS. The small molecule inhibitor was added at the indicated concentrations for 1 h at 37° C., before 100 ng/mL rHuFasL or medium control was added. DMSO treatment served as negative control. After 20 h stimulation, luciferase-based cytotoxicity assay was performed. For CAMK1D inhibition, 1×10^4 KMM-1-luc or 1×10^4 Mel270 cells/well were incubated overnight in a 96 well plate. OMX2001 was added at the indicated concentrations 1 h before rHuFasL stimulation (100 ng/mL) or medium control. DMSO treatment served as negative control. After 20h stimulation, luciferase-based cytotoxicity assay was performed.

KMM-1-luc cells [5] = assay: treatment of scr or siCAMK1D transfected cells with recombinant FasL, TRAIL or TNF, luciferase activity; assay type: cell-based, human; conditions: siCAMK1D transfected KMM-1, 20h treatment
Experimental: as §2

Molecule	CAMK1D expression at protein level (CAMK1D)	T cell mediated cytotoxicity (KMM-1-luc cells [1])	viability impact of siRNA per se (KMM-1-luc cells [1])	CAMK1D expression at mRNA level (CAMK1D mRNA)	other results
s3: siRNA targeting hCAMK1D, CCGAAAAUCUCUUGUACUA, Dharmacon D-004946-03, SEQ ID NO. 5 (listed as RNA, chemistry not given here)	significantly reduced CAMK1D expression	increased T cell mediated cytotoxicity	no viability impact	significantly reduced CAMK1D expression	
Cc1cc(Nc2nc(-c3ccccc3)nc3ccccc23)n[nH]1 [QPP, (5-Methyl-1H-pyrazol-3-yl)-(2-phenylquinazolin-4-yl)amine]					tumour cell viability (luciferase intensity) after inhibitor plus recombinant FasL (Mel270 cells): induced a significant tumour cell viability; tumour cell viability (luciferase intensity) after inhibitor plus recombinant FasL (KMM-1-luc cells [2]): induced a significant tumour cell viability; IC50 [3]: 2940 nM
s2: siRNA targeting hCAMK1D, CAAAUCACCUGUACUUGGU, Dharmacon D-004946-02, SEQ ID NO. 4 (listed as RNA, chemistry not given here)	significantly reduced CAMK1D expression	increased T cell mediated cytotoxicity	no viability impact	significantly reduced CAMK1D expression	
Cl.NCCCCCCNS(=O)(=O)c1cccc2c(Cl)cccc12 [W-7 hydrochloride]					effect on FasL induced tumour cell apoptosis (KMM-1-luc cells [4]; 5 μM, with rHuFasL): sharply recapitulated the effect of CAMK1D silencing; toxicity to KMM-1 cells (tumour cell survival by luciferase intensity) (KMM-1-luc cells [4]; 5 μM, without rHuFasL): not toxic; further increase of FasL-mediated tumour cell killing (KMM-1-luc cells [4]; combination of W-7 hydrochloride with CAMK1D silencing, after FasL exposure): 3 fold
s1: siRNA targeting hCAMK1D, UGAAGUGUAUCCCUAAGAA, Dharmacon D-004946-01, SEQ ID NO. 3 (chemistry not given here)	significantly reduced CAMK1D expression	increased T cell mediated cytotoxicity	no viability impact	significantly reduced CAMK1D expression	
TRAIL: recombinant human TNF-related apoptosis-inducing ligand (protein, UniProt P50591 1-281, looked up) Tumor necrosis factor ligand …: MAMMEVQGGPSLGQTCVLIVIFTVLLQSLCVAVTYVYFTNELKQMQDKYSKSGIACFLKEDDSYWDPNDEESMNSPCWQVKWQLRQLVRKMILRTSEETISTVQEKQQNISPLVRERGPQRVAAHITGTRGRSNTLSSPNSKNEKALGRKINSWESSRSGHSFLSNLHLRNGELVIHEKGFYYIYSQTYFRFQEEIKENTKNDKQMVQYIYKYTSYPDPILLMKSARNSCWSKDAEYGLYSIYQGGIFELKENDRIFVSVTNEHLIDMDHEASFFGAFLVG					reduction of CAMK1D-deficient tumour cells after exposure (KMM-1-luc cells [5]): to a much lesser degree
FasL (protein) PSPPPEKKELRKVAHLTGKSNSRSMPLEWEDTYGIVLLSGVKYKKGGLVINETGLYFVYSKVYFRGQSCNNLPLSHKVYMRNSKYPQDLVMMEGKMMSYCTTGQMWARSSYLGAVFNLTSADHLYVNVSELSLVNFEESQTFFGLYKL					reduction of CAMK1D-deficient tumour cells after exposure (KMM-1-luc cells [5]): dramatically reduced
